Patent US20160367557A1, “HE[…] ACID DERIVATIVES WHICH ARE USEFUL IN THE TREATMENT, AMELIORATION OR PREVENTION OF A VIRAL DISEASE” (Savira pharmaceuticals GmbH, priority 2012, published 2016)

System: influenza A virus (IAV) A/Aichi/2/68 (H3N2)
Assay: Cytopathic effect (CPE) assay
Format: cell-based
Details: Influenza A virus, H3N2; MDCK cells, 48 hrs

Row | SMILES | IC50 [µM]
1 | O=C(O)c1cn(C(c2ccccc2)c2ccccc2)c2sc(O)nc2c1=O | 47
2 | O=C(O)c1cn(Cc2ccccc2-c2ccccc2)c2sc(NS(=O)(=O)Cc3ccc(Cl)cc3Cl)nc2c1=O | 20
3 | CCOC(=O)c1cn(C(c2ccccc2)c2ccccc2)c2sc(NS(=O)(=O)c3ccc(OC)cc3)nc2c1=O | 36
4 | COc1ccc(CNc2nc3c(=O)c(C(=O)O)cn(Cc4ccccc4-c4ccccc4)c3s2)cc1 | 11
5 | O=C(O)c1cn(Cc2ccccc2-c2ccccc2)c2sc(NS(=O)(=O)c3ccc(Cl)cc3F)nc2c1=O | 11
6 | O=C(O)c1cn(C(c2ccccc2)c2ccccc2)c2sc(NCc3ccccc3)nc2c1=O | 14
7 | O=C(O)c1cn(Cc2ccccc2-c2ccccc2)c2sc(NCc3ccccc3)nc2c1=O | 19
8 | CCOC(=O)c1cn(C(c2ccccc2)c2ccccc2)c2sc(NCc3cccc(Cl)c3)nc2c1=O | 27
9 | O=C(O)c1cn(Cc2ccccc2-c2ccccc2)c2sc(NCc3cccc(Cl)c3)nc2c1=O | 12
10 | COc1ccc(CNc2nc3c(=O)c(C(=O)O)cn(Cc4ccc(Cl)cc4-c4ccccc4)c3s2)cc1 | 22
11 | O=C(O)c1cn(Cc2ccccc2-c2ccccc2)c2sc(NS(=O)(=O)c3cccc(F)c3)nc2c1=O | 19
12 | CC(Nc1nc2c(=O)c(C(=O)O)cn(Cc3ccccc3-c3ccccc3)c2s1)c1ccccc1 (stereo not drawn) | 24
13 | O=C(O)c1cn(Cc2ccccc2-c2ccccc2)c2sc(NS(=O)(=O)c3ccccc3)nc2c1=O | 17
14 | COc1ccc(S(=O)(=O)Nc2nc3c(=O)c(C(=O)O)cn(Cc4ccccc4-c4ccccc4)c3s2)cc1 | 15
15 | O=C(O)c1cn(Cc2ccc(Cl)cc2-c2ccccc2)c2sc(O)nc2c1=O | 18
16 | CCOC(=O)c1cn(Cc2ccccc2-c2ccccc2)c2sc(NS(=O)(=O)c3ccc(Cl)cc3)nc2c1=O | 23
17 | N#Cc1ccc(S(=O)(=O)Nc2nc3c(=O)c(C(=O)O)cn(Cc4ccccc4-c4ccc(Cl)cc4)c3s2)cc1 | 14
18 | COc1ccc(S(=O)(=O)Nc2nc3c(=O)c(C(=O)O)cn(Cc4ccccc4-c4ccc(Cl)cc4)c3s2)cc1 | 8.9
19 | COc1ccc(S(=O)(=O)Nc2nc3c(=O)c(C(=O)O)cn(C(c4ccccc4)c4ccccc4)c3s2)cc1 | 31
20 | O=C(O)c1cn(Cc2ccccc2-c2ccccc2)c2sc(O)nc2c1=O | 33
21 | CCOC(=O)c1cn(C(c2ccccc2)c2ccccc2)c2sc(NCc3ccc(Cl)cc3)nc2c1=O | 45
22 | O=C(O)c1cn(C(c2ccccc2)c2ccccc2)c2sc(NS(=O)(=O)c3ccc(Cl)cc3F)nc2c1=O | 26
23 | O=C(O)c1cn(Cc2ccccc2-c2ccccc2)c2sc(NC3CC3)nc2c1=O | 31
24 | O=C(O)c1cn(Cc2ccccc2-c2ccccc2)c2sc(NCc3ccc(Cl)cc3)nc2c1=O | 9.3
25 | O=C(O)c1cn(C(c2ccccc2)c2ccccc2)c2sc(NCc3cccc(Cl)c3)nc2c1=O | 32

Same assay, conditions: MDCK cells, 48 hrs

Row | SMILES | CPE activity in words
26 | O=C(O)c1cn(CCc2ccc(O)cc2)c2cc(C3CC3)nn2c1=O [drawing 222] | inactive
27 | O=C(O)c1cn(Cc2ccccc2-c2ccccc2)c2ccnn2c1=O | inactive
28 | CC(C)c1cc2n(CCCc3ccccc3)cc(C(=O)O)c(=O)n2n1 | inactive
29 | COCCNc1nc2c(=O)c(C(=O)O)cn(Cc3ccccc3-c3ccccc3)c2s1 | inactive
30 | CCOC(=O)c1cn(CCc2ccc(O)cc2)c2cc(C3CC3)nn2c1=O [drawing 220] | inactive
31 | Nc1nc2c(=O)c(C(=O)O)cn(Cc3ccccc3-c3ccccc3)c2s1 | inactive
32 | CNc1nc2c(=O)c(C(=O)O)cn(Cc3ccccc3-c3ccccc3)c2s1 | inactive
33 | O=C(O)c1c[nH]c2ccnn2c1=O [drawing 207] | inactive
34 | O=C(O)c1cn(CCc2ccccc2)c2cc(C3CCCC3)nn2c1=O [drawing 218] | inactive
35 | CS(=O)(=O)n1cc(C(=O)O)c(=O)n2nc(N)cc12 | inactive
36 | Nc1cc2n(S(=O)(=O)c3ccccc3)cc(C(=O)O)c(=O)n2n1 | inactive
37 | Nc1cc2n(S(=O)(=O)Cc3ccccc3)cc(C(=O)O)c(=O)n2n1 | inactive
38 | O=C(O)c1cn(Cc2ccccc2-c2ccccc2)c2scnc2c1=O | inactive
39 | O=C(O)c1cn(Cc2ccccc2-c2ccccc2)c2sc(N3CCOCC3)nc2c1=O | inactive
40 | CS(=O)(=O)Nc1nc2c(=O)c(C(=O)O)cn(Cc3ccccc3-c3ccccc3)c2s1 | inactive
41 | Nc1cc2n(C(=O)C3(c4ccccc4)CCCC3)cc(C(=O)O)c(=O)n2n1 [drawing 213] | inactive
42 | O=C(O)c1c[nH]c2nc(NCc3ccccc3)nn2c1=O [drawing 211] | inactive
43 | O=C(O)c1cn(CCc2cccc(Cl)c2)c2cc(C3CC3)nn2c1=O [drawing 215] | inactive
44 | Nc1cc2n(Cc3ccccc3-c3ccccc3)cc(C(=O)O)c(=O)n2n1 | inactive
45 | O=C(O)c1cn(CCc2cccc(C(F)(F)F)c2)c2cc(C3CC3)nn2c1=O [drawing 221] | inactive
46 | CC(C)Nc1nc2c(=O)c(C(=O)O)cn(Cc3ccccc3-c3ccccc3)c2s1 | inactive
47 | O=C(O)c1cn(CCc2cccc(F)c2)c2cc(C3CC3)nn2c1=O [drawing 216] | inactive
48 | O=C(O)c1c[nH]c2cc(C3CCCC3)nn2c1=O | inactive
49 | CC(C)c1cc2[nH]cc(C(=O)O)c(=O)n2n1 | inactive
50 | COc1ccc(CCn2cc(C(=O)O)c(=O)n3nc(C4CC4)cc23)cc1 [drawing 223] | inactive

System: not given
Assay: not given
Details: not given

Row | SMILES | melting point [°C]
51 | O=C(O)c1cn(CCc2cccc(Cl)c2)c2cc(C3CC3)nn2c1=O | 230 to 235
52 | O=C(O)Cc1c[nH]c2cc(C3CC3)nn2c1=O | > 300
53 | O=C(O)c1cn(CCc2cccc(F)c2)c2cc(C3CC3)nn2c1=O | 220 to 225
54 | CCOC(=O)c1cn(CCc2ccc(Cl)cc2)c2cc(C3CC3)nn2c1=O | 190 to 195
55 | CCOC(=O)Cc1c[nH]c2nc(Nc3ccccc3)nn2c1=O | 255 to 257
56 | O=C(O)c1c[nH]c2cc(C3CC3)nn2c1=O | 275 to 278
57 | O=C(O)c1cn(Cc2ccccc2)c2cc(C3CC3)nn2c1=O | 210 to 215
58 | CCOC(=O)c1c[nH]c2nc(Nc3ccc(NC(C)=O)cc3)nn2c1=O | > 330
59 | CCOC(=O)c1cn(Cc2ccccc2)c2cc(C(C)C)nn2c1=O | 135 to 140
60 | CCOC(=O)Cc1c[nH]c2nc(Nc3ccc(OC(C)C)cc3)nn2c1=O | 235 to 240
61 | O=C(O)c1cn(CCc2ccccc2)c2cc(C3CC3)nn2c1=O | 185 to 190
62 | O=C(O)c1cn(CCc2cccc(C(F)(F)F)c2)c2cc(C3CC3)nn2c1=O | 200 to 205
63 | CCOC(=O)c1cn(CCCc2ccccc2)c2cc(C3CC3)nn2c1=O | 150 to 155
64 | CCOC(=O)c1c[nH]c2nc(NCc3ccc(Br)cc3)nn2c1=O | 286 to 287
65 | O=C(NCCc1ccc(Cl)cc1)c1cc2[nH]cc(C(=O)O)c(=O)n2n1 | > 300
66 | CCOC(=O)c1c[nH]c2nc(NCc3cccc4ccccc34)nn2c1=O | 273 to 275
67 | CCOC(=O)c1cn(Cc2ccccc2)c2cc(C3CC3)nn2c1=O | 160 to 165
68 | O=C(O)Cc1c[nH]c2cc(C(F)(F)F)nn2c1=O | 320 to 324
69 | O=C(O)c1cn(CCCc2ccccc2)c2cc(C3CC3)nn2c1=O | 95 to 100
70 | CCOC(=O)c1cn(CCc2cccc(F)c2)c2cc(C3CC3)nn2c1=O | 160 to 165
71 | CCOC(=O)c1cn(CCc2ccccc2)c2cc(C(C)C)nn2c1=O | 130 to 135
72 | O=C(O)Cc1c[nH]c2nc(Nc3ccccc3)nn2c1=O | 279 to 281

Row | SMILES | melting point [°C]
73 | CCOC(=O)c1c[nH]c2cc(C(=O)NC3CCN(Cc4ccccc4)CC3)nn2c1=O | 264 to 266
74 | O=C(O)c1cn(CCc2ccccc2)c2cc(C3CCCC3)nn2c1=O | 198 to 200
75 | CCOC(=O)c1cn(Cc2ccccc2)c2cc(C3CCCC3)nn2c1=O | 148 to 150
76 | CCOC(=O)c1cn(CCc2ccc(O)cc2)c2cc(C3CC3)nn2c1=O | 95 to 100
77 | CCOC(=O)c1c[nH]c2nc(Nc3ccc(C)c(Cl)c3)nn2c1=O | > 340
78 | CC(C)c1cc2n(Cc3ccccc3)cc(C(=O)O)c(=O)n2n1 | 180 to 185
79 | CCOC(=O)c1cn(CCc2cccc(Cl)c2)c2cc(C3CC3)nn2c1=O | 160 to 165
80 | O=C(O)c1c[nH]c2cc(C(F)(F)F)nn2c1=O | > 340
81 | CCOC(=O)c1cn(CCc2ccccc2)c2cc(C3CCCC3)nn2c1=O | 162 to 164
82 | CCOC(=O)c1c[nH]c2cc(C(=O)NCCc3ccc(Cl)cc3)nn2c1=O | > 300
83 | O=C(O)c1cn(CCc2ccc(O)cc2)c2cc(C3CC3)nn2c1=O | 265 to 270
84 | CCOC(=O)c1c[nH]c2cc(C(=O)NCc3ccccc3)nn2c1=O | 290 to 292
85 | O=C(O)c1c[nH]c2nc(NCc3cccc4ccccc34)nn2c1=O | 245 to 250
86 | COc1ccc(CCn2cc(C(=O)O)c(=O)n3nc(C4CC4)cc23)cc1 | 145 to 150
87 | O=C(O)c1cn(CCc2ccc(Cl)cc2)c2cc(C3CC3)nn2c1=O | 220 to 225
88 | CCOC(=O)c1c[nH]c2c(C#N)c(CCCNC)nn2c1=O | 285 to 287
89 | O=C(O)c1cn(CCc2ccc(C(F)(F)F)cc2)c2cc(C3CC3)nn2c1=O | 225 to 230
90 | O=C(O)c1cn(Cc2ccccc2)c2cc(C3CCCC3)nn2c1=O | 213 to 215
91 | CCOC(=O)c1cn(CCc2cccc(C(F)(F)F)c2)c2cc(C3CC3)nn2c1=O | 140 to 145
92 | CCOC(=O)c1cn(CCc2ccc(OC)cc2)c2cc(C3CC3)nn2c1=O | 160 to 165
93 | CC(C)c1cc2n(CCc3ccccc3)cc(C(=O)O)c(=O)n2n1 | 220 to 225
